Assay results: patent US7935706B2, “Nitrogen-containing heterocycle derivatives substituted with cyclic group” (Shionogi & Co., Ltd., priority 2006, dated 2011)
pIC50: −log10 of the molar value. Where two headings read alike, the source gives them in different places. Each block holds one compound with its values, some of them ahead of it.

Experiments:
NR1/NR2B receptor = biological target: T1, NR1/NR2B receptor (Rattus norvegicus, UniProt P35439+Q00960); assay: Test of binding with NMDA receptor (NR1/NR2B receptor): competition with [3H]-Ifenprodil on rat cerebral cortex membrane specimen; conditions: for pIC50: same binding test, read-out: IC50 (binding with NR1/NR2B receptor); for IC50: [3H]-Ifenprodil 5 nM, GBR-12909 3 μM, rat cerebral cortex membranes, ice temperature 120 minutes, read-out: NR2B (IC50 μM)
T1 construct: from tissue; host or cells: rat cerebral cortex membranes (male Slc: Wistar rat)
T1 sequence (Q00960 27-1482, other chains not shown): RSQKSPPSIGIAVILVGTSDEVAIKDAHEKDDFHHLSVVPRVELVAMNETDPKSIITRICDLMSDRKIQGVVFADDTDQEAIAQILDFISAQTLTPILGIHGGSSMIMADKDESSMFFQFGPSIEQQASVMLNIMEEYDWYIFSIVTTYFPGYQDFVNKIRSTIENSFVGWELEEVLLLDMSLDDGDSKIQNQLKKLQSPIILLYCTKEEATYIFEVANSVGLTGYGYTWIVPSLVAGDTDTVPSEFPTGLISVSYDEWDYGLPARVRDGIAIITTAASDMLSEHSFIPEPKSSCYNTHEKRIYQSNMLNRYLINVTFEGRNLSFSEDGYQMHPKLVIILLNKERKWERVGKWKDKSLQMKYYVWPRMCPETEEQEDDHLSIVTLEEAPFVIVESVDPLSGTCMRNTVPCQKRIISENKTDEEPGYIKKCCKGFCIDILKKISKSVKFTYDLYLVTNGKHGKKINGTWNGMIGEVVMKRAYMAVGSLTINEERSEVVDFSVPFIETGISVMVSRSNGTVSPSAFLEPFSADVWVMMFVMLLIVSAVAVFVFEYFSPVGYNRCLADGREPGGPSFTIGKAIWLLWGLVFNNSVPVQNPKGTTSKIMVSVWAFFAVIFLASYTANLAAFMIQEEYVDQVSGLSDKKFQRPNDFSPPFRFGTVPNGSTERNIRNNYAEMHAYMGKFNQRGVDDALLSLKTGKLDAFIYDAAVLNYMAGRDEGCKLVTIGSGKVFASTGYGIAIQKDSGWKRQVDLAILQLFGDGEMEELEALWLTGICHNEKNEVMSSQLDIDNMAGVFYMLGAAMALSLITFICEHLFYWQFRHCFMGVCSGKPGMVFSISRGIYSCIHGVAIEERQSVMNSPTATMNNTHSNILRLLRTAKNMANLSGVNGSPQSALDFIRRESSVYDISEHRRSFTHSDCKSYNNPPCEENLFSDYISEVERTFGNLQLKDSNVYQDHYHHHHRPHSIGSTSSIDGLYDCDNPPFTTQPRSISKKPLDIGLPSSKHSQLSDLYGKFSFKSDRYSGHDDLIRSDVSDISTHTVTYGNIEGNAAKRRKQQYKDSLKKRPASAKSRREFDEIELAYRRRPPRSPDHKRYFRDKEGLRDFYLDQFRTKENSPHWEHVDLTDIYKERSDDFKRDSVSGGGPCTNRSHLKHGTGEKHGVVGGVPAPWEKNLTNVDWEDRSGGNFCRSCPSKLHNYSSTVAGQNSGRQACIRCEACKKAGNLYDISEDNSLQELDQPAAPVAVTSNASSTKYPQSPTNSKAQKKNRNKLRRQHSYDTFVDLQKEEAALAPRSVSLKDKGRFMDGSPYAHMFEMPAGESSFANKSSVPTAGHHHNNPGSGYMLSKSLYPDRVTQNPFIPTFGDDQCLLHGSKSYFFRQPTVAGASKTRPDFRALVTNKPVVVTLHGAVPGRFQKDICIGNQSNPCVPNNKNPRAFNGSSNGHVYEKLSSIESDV
Protocol: Test of Binding with NMDR Receptor (NR1/NR2B Receptor)
Using Ifenprodil which is an antagonist specific for a NR1/NR2B subtype receptor as a ligand, an experiment of competition between a receptor and a test compound was performed.
Using a male Slc: Wistar rat as an animal, a brain was isolated after decapitation, and a cerebral cortex was fractionated. The cerebral cortex was homogenized with a 20-fold amount of an ice-cooled 50 mM Tris/HCl buffer (pH 7.4), and the homogenate was centrifuged at 4° C. and 27,500×g for 10 minutes. The resulting precipitate was suspended in the same buffer, and this was again centrifuged. This operation was repeated for three times, the resulting precipitate was suspended in a buffer, and this was stored at −80° C. Immediately before an experiment, the frozen suspension was thawed at room temperature, this was centrifuged at 4° C. and 27,500×g for 10 minutes, and the resulting precipitate was suspended in a buffer. Further, the suspension was diluted 10-fold with a buffer, and this was used as a membrane specimen in an experiment. In a binding experiment, to 470 μl of the membrane specimen were added […] of each of test compounds having different concentrations, 10 μl of a labeled ligand [^3H]-Ifenprodil and 10 μl GBR-12909, followed by incubation at an ice temperature for 120 minutes. A concentration of [^3H]-Ifenprodil of the labeled ligand was finally 5 nM, and a concentration of GBR-12909 was finally 3 μM. For measuring a total binding amount, DMSO as a solvent was used and, for measuring a non-specific binding amount, 100 μM Ifenprodil was used. GBR-12909 was added in order to block binding of [^3H]-Ifenprodil to non-polyamine-sensitive site. After incubation, a bound formand a free foramwere separated using Whatman GF/C filter (manufactured by Whatman), and the filter was washed with 2.5 ml ice-cooled buffer four times. The filter was immersed in liquid scintillation (Cryasol I, manufactured by Nacalai tesque), and radioactivity (dpm) was measured with a liquid scintillation counter. From a measured value, a binding inhibition rate (%) was obtained by the following equation, and a dose at which binding is inhibited 50% (IC50) was calculated. A formula of GBR-12909 (vanoxerine) is shown below.
Binding inhibition rate(%)=100−[(binding amount in the presence of test compound−non-specific binding amount)/(total binding amount−non-specific binding amount)]×100

[1] = biological target: T2, NMDA receptor (NR1 subunit and NR2B subunit) (Mus musculus, UniProt P35438+Q01097); assay: Measurement of expression of NMDA receptor and Ca ion influx amount (glutamic acid/glycine-induced, HEK293 cell co-expressing NR1 and NR2B subunits, Fluo-3/AM); type: cell-based
T2 construct: expressed in transfected cells; host or cells: HEK293 cells, transient transfection with pcDNA3.1 plasmids
T2 sequence (Q01097 27-1482, other chains not shown): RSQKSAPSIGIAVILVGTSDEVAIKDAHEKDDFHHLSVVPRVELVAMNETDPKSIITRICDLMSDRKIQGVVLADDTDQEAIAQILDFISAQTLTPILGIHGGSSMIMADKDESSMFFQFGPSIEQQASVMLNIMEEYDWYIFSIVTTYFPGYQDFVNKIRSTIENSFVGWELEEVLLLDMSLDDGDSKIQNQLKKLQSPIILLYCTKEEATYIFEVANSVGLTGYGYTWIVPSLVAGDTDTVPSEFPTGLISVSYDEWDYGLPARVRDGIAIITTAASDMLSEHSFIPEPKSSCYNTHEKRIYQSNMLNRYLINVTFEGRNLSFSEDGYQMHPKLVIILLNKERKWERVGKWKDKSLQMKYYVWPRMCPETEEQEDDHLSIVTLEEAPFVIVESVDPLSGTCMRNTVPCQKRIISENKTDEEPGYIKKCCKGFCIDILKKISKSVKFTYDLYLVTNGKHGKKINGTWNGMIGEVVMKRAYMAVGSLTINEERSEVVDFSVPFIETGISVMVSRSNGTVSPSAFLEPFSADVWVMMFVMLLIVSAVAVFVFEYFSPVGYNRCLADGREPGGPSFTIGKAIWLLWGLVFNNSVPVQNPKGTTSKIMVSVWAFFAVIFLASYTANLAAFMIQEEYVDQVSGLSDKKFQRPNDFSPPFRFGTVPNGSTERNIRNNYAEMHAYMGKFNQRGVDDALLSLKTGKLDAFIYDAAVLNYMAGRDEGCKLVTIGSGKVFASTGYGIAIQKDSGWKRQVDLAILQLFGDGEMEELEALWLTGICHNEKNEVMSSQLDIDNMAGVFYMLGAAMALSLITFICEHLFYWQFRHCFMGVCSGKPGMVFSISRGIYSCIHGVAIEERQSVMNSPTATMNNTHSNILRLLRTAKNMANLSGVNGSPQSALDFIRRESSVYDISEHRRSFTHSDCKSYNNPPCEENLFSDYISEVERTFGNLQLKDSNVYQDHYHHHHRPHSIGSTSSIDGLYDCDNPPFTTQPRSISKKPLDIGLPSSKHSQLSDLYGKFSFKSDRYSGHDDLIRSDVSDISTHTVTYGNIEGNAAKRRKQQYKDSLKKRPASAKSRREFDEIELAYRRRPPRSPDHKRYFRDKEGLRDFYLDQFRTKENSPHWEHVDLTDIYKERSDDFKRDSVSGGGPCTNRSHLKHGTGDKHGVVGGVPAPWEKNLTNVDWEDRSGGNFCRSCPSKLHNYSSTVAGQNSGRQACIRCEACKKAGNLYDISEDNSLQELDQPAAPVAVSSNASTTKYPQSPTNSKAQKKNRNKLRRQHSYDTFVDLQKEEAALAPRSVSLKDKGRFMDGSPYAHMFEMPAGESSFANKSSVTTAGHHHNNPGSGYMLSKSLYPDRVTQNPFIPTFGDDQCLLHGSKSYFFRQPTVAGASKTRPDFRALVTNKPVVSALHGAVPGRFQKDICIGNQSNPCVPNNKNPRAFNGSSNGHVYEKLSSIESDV
Protocol: Measurement of Expression of NMDA Receptor and Ca Ion Influx Amount
A complementary DNA (cDNA) of a mouse NMDA receptor subunit was transiently introduced into a HEK293 cell and, after 1 day from introduction, change in a glutamic acid/glycine-induced intracelluar Ca amount was measured using a Ca ion reactive fluorescent coloring matter.
The HEK293 cell was cultured, and passaged using a modified Dulbecco's Eagle medium (DMEM, low glucose).
The HEK293 cell (20,000/well) was seeded on a 96-well plate, a NR1 subunit and a NR2B subunit of the NMDA receptor incorporated into the pcDNA3.1 plasmid were transiently introduced into a cell, and the subunits were co-expressed. An introduction amount of a DNA was 0.025 μg in the case of the NR1 subunit, and 0.075 μg in the case of NR2B subunit per well. For the cell after introduction, cell death was inhibited using 50 μM of the NMDA receptor antagonist MK-801.
For adjusting a test compound and washing a cell, Krebs/Ringer/Hepes buffer (KRH, Ca: 5 mM) was used.
After 1 day from introduction, the NMDA receptor antagonist MK-801 was washed out using the KRH buffer, and a Ca ion indication fluorescent coloring matter Fluo-3/AM was made to be taken into the cell. Ca ion influx was induced with 20 μM glutamic acid/2 μM glycine. Change in a fluorescent amount due to Ca ion influx into the cell was measured at excitation of 480 nm using a fluorescent imaging system FDSS 3000.
From a measured value of the test compound, a Ca ion influx inhibition rate (%) was obtained by the following equation, and a dose at which influx is inhibited 50% (IC50) was calculated.
Ca ion influx inhibition rate(%)=100−[(fluorescent amount in the presence of test compound−background fluorescent amount)/(total fluorescent amount−background fluorescent)]×100

[2] = Ca ion influx induced with 20 μM glutamic acid/2 μM glycine, HEK293 cell with mouse NR1/NR2B, read-out: Ca2+ IC50
[3] = same Ca ion influx test, read-out: IC50 (Ca ion influx inhibition)

Compound: O=C(C=C1CCN(c2ccc(F)c(Cl)c2)CC1)Nc1ccc2[nH]c(=O)oc2c1 [Compound I-205]
melting point: 209 to 211 °C
pIC50 (NR1/NR2B receptor): ≥ 7.00

Compound: C[C@@H]1CN(C(=O)C(=O)Nc2ccc3[nH]c(=O)oc3c2)CCN1c1ccc(F)c(Cl)c1 [Compound I-206]
melting point: 107 to 108 °C
pIC50 (NR1/NR2B receptor): ≥ 7.00

Compound: O=C(NCCC1CCN(c2ccc(Cl)cc2)CC1)c1ccc(=O)[nH]c1 [Compound I-1]
melting point: 232 to 234 °C
IC50 (NR1/NR2B receptor): 0.043 µM

Compound: O=C(NCCC1CCN(c2ccc(C(F)(F)F)cc2)CC1)c1ccc(=O)[nH]c1 [Compound I-2]
melting point: 232 to 233 °C (dec.)
pIC50 [1, 2]: 7.85
IC50 (NR1/NR2B receptor): 0.033 µM

Compound: O=C(Nc1ccc2[nH]c(=O)oc2c1)C(=O)N1CCN(c2ccc(Cl)cn2)CC1 [Compound I-204]
melting point: 241 to 243 °C
pIC50 (NR1/NR2B receptor): ≥ 7.00

Compound: O=C(C=C1CCN(c2ccc(C(F)(F)F)cn2)CC1)Nc1ccc2[nH]c(=O)sc2c1 [Compound I-66]
melting point: 219 to 220 °C
pIC50 [1, 2]: 7.60
IC50 (NR1/NR2B receptor): 0.09 µM

Compound: O=C(NCCC1CCN(c2ccc(Br)cc2)CC1)c1ccc(=O)[nH]c1 [Compound I-5]
melting point: 236 to 238 °C (dec.)
pIC50 [1, 2]: 7.70
IC50 (NR1/NR2B receptor): 0.043 µM

Continued, values first:

melting point: 224 to 226 °C
pIC50 (NR1/NR2B receptor): ≥ 7.00
Compound: COc1ccc(N2CCN(C(=O)C(=O)Nc3ccc4[nH]c(=O)oc4c3)CC2)cc1Cl [Compound I-247]

melting point: 197 to 198 °C
pIC50 [1, 3]: ≥ 7.00
pIC50 (NR1/NR2B receptor): ≥ 7.00
Compound: C[C@@H]1CN(C(=O)C(=O)Nc2ccc3[nH]c(=O)oc3c2)CCN1c1ccc(C(F)(F)F)cn1 [Compound I-209]

melting point: 230 to 232 °C
pIC50 [1, 3]: ≥ 7.00
pIC50 (NR1/NR2B receptor): ≥ 7.00
Compound: O=C(NCCC1CCN(c2ccc(Cl)c(F)c2)CC1)c1ccc(=O)[nH]c1 [Compound I-208]

melting point: 123 to 125 °C
pIC50 [1, 3]: ≥ 7.00
pIC50 (NR1/NR2B receptor): ≥ 7.00
Compound: COc1ccc(N2CCN(C(=O)C(=O)Nc3ccc4[nH]c(=O)oc4c3)[C@H](C)C2)cc1Cl [Compound I-249]
